Measured values reported in patent US4529593A, “Use of gallium salts to treat disorders of calcium homeostasis” (Sloan-Kettering Institute for Cancer Research, priority 1984, dated 1985).

Experiments:
fetal rat bones = assay: 45-Ca++ release (bone resorption) from explants of fetal rat bones stimulated by PTH or lymphokine (OAF); format: cell-based; conditions: for 45-Ca++ release after stimulation by PTH or lymphokine (dose dependence): 48 hrs preincubation; for 45-Ca++ release expt'l / 45-Ca++ release control (E/C): control 1.00 ± .06; for 45-Ca++ release, gallium alone: without added PTH or lymphokine, vs control bones
Protocol: The effects of gallium nitrate on bone resorption in vitro were studied using explants of fetal rat bones (Bockman, R. S. and Repo, M. A., J Exp Med 154:529, 1981). Pregnant rats were injected with 0.2-0.4 mCi of 45-CaC12 on the 18th day of gestation. After 2 days of bone mineralization in utero, the radii and ulnae of fetal rats were explanted and placed on stainless steel rafts in BGJ media. Calcium releases from bone was stimulated by the addition of bovine PTH (2.0 microM, final concentration)or a lymphokine (OAF) preparation (10% of final volume). Gallium nitrate was added to the culture media at final concentration of 1, 5 and 10 mcg/ml simultaneously with--and 18 or 48 hours prior to--the addition of the bone-resorbing factors. After 48 hours of exposure to lymphokine or PTH, calcium release was determined by counting the supernatant media in a liquid scintillation counter. Data were expressed as the ratio of calcium release in counts per minute (cpm) of the experimental bone (treated or untreated with gallium nitrate and a resorbing factor) to cpm release by a paired control bone (treated or untreated with gallium nitrate) [cpm experimental/cpm control=E/C] Forty-nine bones were used to establish control values; 4-22 bones were used to obtain each of the experimental points. […]

kidney = assay: clinical toxicity of gallium (kidney damage, long-term infusion); format: in vivo, patients; conditions: printed 22+ months
Source text: As with most anticancer drugs, gallium can potentially cause serious toxicity. The most serious side-effect being kidney damage. […] Furthermore, the anti bone-resorptive effects of gallium nitrate are achieved with less than 25-50% of the anticancer dose. Thus the method should retain safety and efficacy for prolonged periods of time.

[1] = resorption of devitalized bone particles from treated rats; conditions: particles from treated rats vs controls
Source text: Devitalized bone particles (i.e. bones containing only mineral and matrix without any cellular component) were studied.

[2] = system: bone mineral (metaphysis); assay: gallium incorporation into bone mineral, X-ray diffraction; format: in vivo, rats
Source text: Conceivably, gallium promotes or stabilizes crystal structure to produce matrix with more crystalline hydroxyapatite, or the drug promotes growth rather than dissolution of smaller crystallites.

animal and human tumors = conditions: certain animal and human tumors; Warrell 1983, Adamson 1975; cited from earlier work
[3] = intravenous infusion, clinical dose; Kelsen et al 1980; cited from earlier work
explanted bones = assay: PGE2 release from explanted fetal rat bones; format: cell-based
[4] = system: cancer-related hypercalcemia; assay: treatment of cancer-related hypercalcemia with gallium nitrate; format: in vivo, patients; conditions: for Serum calcium, Post-Treatment: 100 mg/sq m/d × 5 d; for Total Serum Calcium, Post-Treatment: 200 mg/sq m/d × 5-7 d
Protocol: Summary: In the initial study, gallium nitrate was used for the treatment of 10 patients with cancer-related hypercalcemia. The daily dose of drug was 200 mg/sq m administered as a continuous infusion for durations ranging from 5-7 days. The diagnoses of this patient population and the change in total serum calcium concentration in response to this therapy are presented in Table 4a.
The subsequent increase of their disease was not accompanied by an increase in serum calcium which indicates a persistent control of the metabolic problem despite lack of control of the underlying cancer. All other patients who received the drug manifested progressive cancer despite control of the hypercalcemia. […] In a subsequent study, we further reduced the daily dose of gallium nitrate to 100 mg/sq m administered for 5 days. At a lower dose, 5 of 8 patients were normalized (Table 4b). These preliminary clinical results reflect our preclinical studies previously detailed, namely that there exists a distinct dose-response relation to the anti-calcium effect (Warrell, R. P. Jr, Bockman, R. S. et al, J. Clin. Invest. 73:1487 (1984 )).

[5] = oral absorption and excretion of gallium nitrate in the dog; format: in vivo; conditions: for plasma gallium concentration: single oral dose 1200 mg by gavage
Protocol: To evaluate the oral absorption and excretion of gallium nitrate, a concentrated solution of the drug was administered to a dog by oral gavage (total dose=1200 mg). Sequential plasma samples and the next 24 hour urinary volume were collected and assayed for gallium concentration by a flameless atomic absorption sprectrophotometer (Kelsen, D. P. et al, Cancer 46:2009, 1980).
The subsequent 24 hour urine volume was 183 ml and it contained a total amount of 1.13 mg of elemental gallium. Assuming similar patterns of excretion in humans and dogs, it is estimated that approximately 0.5-2% of an orally administered dose is absorbed and excreted into the urine.

[6] = system: bone cells (particularly osteoclasts); assay: histology of cultured rat bones (toxicity to bone cells); format: cell-based
Source text: Samples of cultured rat bones used in experiments previously described herein were fixed, decalcified and stained with hematoxylin and eosin. Histologic sections were examined by light microscopy.

[7] = 48 h preincubation, 1, 5 and 10 mcg/ml

O=[N+]([O-])[O-].O=[N+]([O-])[O-].O=[N+]([O-])[O-].[Ga+3] [gallium nitrate]
45-Ca++ release after stimulation by PTH or lymphokine (dose dependence) (fetal rat bones; 1 mcg/ml): no significant change
45-Ca++ release after stimulation by PTH or lymphokine (dose dependence) (fetal rat bones; 5 and 10 mcg/ml, P less than 0.025): significant and dose-related reductions
45-Ca++ release (time dependence) (fetal rat bones; 10 mcg/ml simultaneously with (time 0) or 18 hrs preceding PTH or lymphokine): the reduction was not statistically significant
45-Ca++ release (fetal rat bones; [7]): dose dependent decrease
45-Ca++ release expt'l / 45-Ca++ release control (E/C) (fetal rat bones; PTH-stimulated, gallium 1 mcg/ml, 48 h preincubation, 0 gallium: 1.21 ± 0.15): 1.24
45-Ca++ release expt'l / 45-Ca++ release control (E/C) (fetal rat bones; PTH-stimulated, gallium 5 mcg/ml, 48 h preincubation, 0 gallium: 1.21 ± 0.15): 1.08
45-Ca++ release expt'l / 45-Ca++ release control (E/C) (fetal rat bones; PTH-stimulated, gallium 10 mcg/ml, 48 h preincubation, 0 gallium: 1.21 ± 0.15): 0.99
45-Ca++ release expt'l / 45-Ca++ release control (E/C) (fetal rat bones; lymphokine-stimulated, gallium 1 mcg/ml, 48 h preincubation, 0 gallium: 1.59 ± .1): 1.54 ± .16
45-Ca++ release expt'l / 45-Ca++ release control (E/C) (fetal rat bones; lymphokine-stimulated, gallium 5 mcg/ml, 48 h preincubation, 0 gallium: 1.59 ± .1): 1.21 ± .04
45-Ca++ release expt'l / 45-Ca++ release control (E/C) (fetal rat bones; lymphokine-stimulated, gallium 10 mcg/ml, 48 h preincubation, 0 gallium: 1.59 ± .1): 1.23 ± .04
lymphokine-induced 45-Ca++ release (time dependence) (fetal rat bones; pre-incubation 48 hours preceding lymphokine, 10 mcg/ml): highly significant reduction
calcium release induced by PTH and by factor similar to OAF (fetal rat bones; summary, inhibition time- and dose-dependent): inhibits calcium release induced by both of these substances
45-Ca++ release, gallium alone (fetal rat bones): No increase in bone calcium release
45-Ca++ release, gallium alone (fetal rat bones; listed as gallium): did not have any effect on 45-Ca++ release
duration of intermittent high-dose infusions without serious toxicity (kidney): ≥ 22 months
susceptibility of devitalized bone particles to resorption [1]: significantly less susceptible to resorption than controls
crystal size in metaphyseal-derived particles (X-ray diffraction) ([2]; gallium treated animals vs controls): marked increase in crystal size
gallium incorporation into bone ([2]; rats treated with gallium nitrate): incorporated into the bone metaphysis where more active bone mineral turnover was occurring and into the metabolically more active crystalline pool
anticancer activity (animal and human tumors): modest anticancer activity
steady-state plasma gallium concentration [3]: 0.9 to 2.0 µg/mL
PGE2 release from explanted bones (explanted bones; 10 mcg/ml, 24-48 h, vs non-treated bones): no change in PGE2 over control
PGE2 release (explanted bones; [7]): no significant change in PGE2 release
PGE2 (explanted bones; PTH, gallium 1 mcg/ml, 48 h preincubation, 0 gallium: 1.4, control 1.2): 2.2 ng/bone
PGE2 (explanted bones; PTH, gallium 5 mcg/ml, 48 h preincubation, 0 gallium: 1.4, control 1.2): 1.3 ng/bone
PGE2 (explanted bones; PTH, gallium 10 mcg/ml, 48 h preincubation, 0 gallium: 1.4, control 1.2): 3.9 ng/bone
PGE2 release of gallium treated bones on exposure to lymphokine, but not PTH (explanted bones; gallium treated bones exposed to lymphokine): significant increase in PGE2 release
PGE2 (explanted bones; lymphokine, gallium 1 mcg/ml, 48 h preincubation, 0 gallium: 17.1, control 2.0): 17.4 ng/bone
PGE2 (explanted bones; lymphokine, gallium 5 mcg/ml, 48 h preincubation, 0 gallium: 17.1, control 2.0): 16.7 ng/bone
PGE2 (explanted bones; lymphokine, gallium 10 mcg/ml, 48 h preincubation, 0 gallium: 17.1, control 2.0): 15.1 ng/bone
patients normalized ([4]; 100 mg/sq m for 5 days): 5 of 8
Serum calcium, Post-Treatment ([4]; Patient 1, Breast, pre-treatment 13.9): 11.3 mg/dL
Serum calcium, Post-Treatment ([4]; Patient 2, Anus, pre-treatment 12.7): 6.3 mg/dL
Serum calcium, Post-Treatment ([4]; Patient 3, Kidney, pre-treatment 14.3): 12.0 mg/dL
Serum calcium, Post-Treatment ([4]; Patient 4, Breast, pre-treatment 14.5): 8.7 mg/dL
Serum calcium, Post-Treatment ([4]; Patient 5, Pancreas, pre-treatment 14.6): 10.0 mg/dL
Serum calcium, Post-Treatment ([4]; Patient 6, Myeloma, pre-treatment 15.0): 13.7 mg/dL
Serum calcium, Post-Treatment ([4]; Patient 7, Lung, pre-treatment 13.0): 10.8 mg/dL
Serum calcium, Post-Treatment ([4]; Patient 8, Breast, pre-treatment 17.0): 9.0 mg/dL
response (serum calcium concentration) ([4]; 200 mg/sq m/d continuous infusion 5-7 days, 10 patients): all patients responded to this treatment by a reduction in serum calcium concentration to normal (and frequently sub-normal) values
Total Serum Calcium, Post-Treatment ([4]; Patient 1, Breast, pre-treatment 13.8): 8.9 mg/dL
Total Serum Calcium, Post-Treatment ([4]; Patient 2, Breast, pre-treatment 15.2): 8.5 mg/dL
Total Serum Calcium, Post-Treatment ([4]; Patient 3, Lymphoma, pre-treatment 15.6): 6.6 mg/dL
Total Serum Calcium, Post-Treatment ([4]; Patient 4, Head & Neck, pre-treatment 12.3): 8.5 mg/dL
Total Serum Calcium, Post-Treatment ([4]; Patient 5, Breast, pre-treatment 14.4): 7.7 mg/dL
Total Serum Calcium, Post-Treatment ([4]; Patient 6, Lymphoma, pre-treatment 15.6): 8.6 mg/dL
Total Serum Calcium, Post-Treatment ([4]; Patient 7, Lung, pre-treatment 12.5): 7.0 mg/dL
Total Serum Calcium, Post-Treatment ([4]; Patient 8, Penis, pre-treatment 12.3): 9.3 mg/dL
Total Serum Calcium, Post-Treatment ([4]; Patient 9, Head & Neck, pre-treatment 13.5): 7.8 mg/dL
Total Serum Calcium, Post-Treatment ([4]; Patient 10, Lung, pre-treatment 13.7): 9.3 mg/dL
size of a lymphomatous mass ([4]; 200 mg/sq m/d, Patient 5, followed by progression and death): transient decrease in the size of a lymphomatous mass
anti-cancer effect associated with hypocalcemic effect ([4]; 200 mg/sq m/d, all patients except Patient 5): not associated with any anti-cancer effect
oral gallium nitrate dose estimated to achieve effective plasma levels ([5]; 70 kg human, extrapolated from dog data): 0.5-20 gms
toxic reaction ([5]; dog, oral 1200 mg): no toxic reaction
total amount of elemental gallium in urine ([5]; dog, oral 1200 mg, 24 hour urine): 1.13 mg
plasma gallium concentration ([5]; dog, 0 hrs): 0 µg/mL
plasma gallium concentration ([5]; dog, 0.25 hrs): 0.5 µg/mL
plasma gallium concentration ([5]; dog, 0.5 hrs): 1.25 µg/mL
plasma gallium concentration ([5]; dog, 1 hr): 1.37 µg/mL
plasma gallium concentration ([5]; dog, 2 hrs): 2.75 µg/mL
plasma gallium concentration ([5]; dog, 4 hrs): 2.0 µg/mL
plasma gallium concentration ([5]; dog, 24 hrs): 0.75 µg/mL
lethal toxicity to bone cells ([6]; pharmacologic concentrations): do not cause lethal toxicity to bone cells
cellular components (histology) ([6]; pharmacologic concentrations, 72 hrs, compared with mithramycin-treated bones): normal cellular components
bone cell morphology ([6]; relative to untreated control bones, 72 hrs): no differences in bone cell morphology
